What was measured:
[1] = tested on: anti-peptide IgG in plasma; assay: Test Example 4: peptide-specific IgG titer pre and post vaccination, bead-based multiplexed Luminex assay; type: in vivo, human; conditions: for Pre-vaccination IgG Negative (number of patients) / Pre-vaccination IgG Positive (number of patients): cut off 10 FIU; for Post vaccination IgG: number of (positive) patients among vaccinated: positive IgG response; for Pre-vaccination IgG Negative patients: number of 2,588 patients below 10 FIU; for Pre-vaccination IgG Positive patients: number of 2,588 patients with ≥10 FIU; for Post vaccination IgG: (positive) patients: number of vaccinated patients with positive IgG response; for Correlation between immune responses and OS: Negative (mOS): patients with negative post-vaccination IgG response to the peptide; for Correlation between immune responses and OS: Positive (mOS): patients with positive post-vaccination IgG response to the peptide
Outline: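 Plasma taken before vaccination and at the end of the first and second cycles; incubated with peptide-coupled beads 2 hours at 25° C., then biotinylated anti-human IgG (gamma chain-specific) and streptavidin-PE. Bead FIU read by Luminex; positivity cutoff 10 FIU in 100-fold diluted samples.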

cancer patients = assay: Test Example 4: correlation between vaccination with individual peptides (or peptide sets) and OS, Cox proportional hazards regression; type: in vivo, human; conditions: for HR: Cox proportional hazards regression, OS; for Correlation between immune responses and OS: Negative (mOS) / Correlation between immune responses and OS: Positive (mOS): Table 20, <64% neutrophil and ≥26% lymphocyte; for Correlation between immune responses and OS: Negative (mOS): vaccinated patients with negative IgG response; for Correlation between immune responses and OS: Positive (mOS): vaccinated patients with positive IgG response
Outline: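 Univariate and multivariate Cox proportional hazards regression of each of 31 vaccine peptides against OS (enrollment to death or last contact), giving HR with 95% CI; also run separately in 2,085 advanced (stage IV+recurrence) and 503 stage I-III patients. Two-sided p<0.05 considered significant.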

[2] = Table 20, patients showing both <64% neutrophil and ≥26% lymphocyte
[3] = patients showing detectable levels
[4] = patients showing positive responses
[5] = Table 18, all 2,588 cases, vaccinated vs non-vaccinated
[6] = Table 18, all 2,588 cases, median OS of patients under PPV containing the peptide
[7] = Table 18, all 2,588 cases, median OS of patients under PPV not containing the peptide
[8] = Table 19, 2,085 advanced cancer patients (stage IV+recurrence)
[9] = Table 19, 2,085 advanced cancer patients (stage IV+recurrence), PPV containing the peptide
[10] = Table 19, 2,085 advanced cancer patients (stage IV+recurrence), PPV not containing the peptide
[11] = Table 21, patients showing both <64% neutrophil and ≥26% lymphocyte
[12] = Table 21, patients showing both <64% neutrophil and ≥26% lymphocyte, PPV containing the peptide
[13] = Table 21, patients showing both <64% neutrophil and ≥26% lymphocyte, PPV not containing the peptide
[14] = 2,085 advanced cancer patients (stage IV+recurrence)

Row | Sequence | Post vaccination IgG Median (FIU) [1, 2] | Pre-vaccination IgG Median (FIU) [1, 2] | Pre-vaccination IgG Negative (number of patients) [1, 2] | Pre-vaccination IgG Positive (number of patients) [1, 2] | Post vaccination IgG: number of (positive) patients among vaccinated [1, 2] | Pre-vaccination IgG Negative patients [1] | Pre-vaccination IgG Positive patients [1] | Post vaccination IgG: (positive) patients [1] | Pre-vaccination IgG Median (FIU) [1, 3] | Post vaccination IgG Median (FIU) [1, 4] | Correlation between immune responses and OS: Negative (mOS) [1] | Correlation between immune responses and OS: Positive (mOS) [1] | HR (cancer patients; [5]) | Vaccinate cases (mOS) (cancer patients; [6]) | Non-vaccinate cases (mOS) (cancer patients; [7]) | HR (cancer patients; [8]) | Vaccinate cases (mOS) (cancer patients; [9]) | Non-vaccinate cases (mOS) (cancer patients; [10]) | Correlation between immune responses and OS: Negative (mOS) (cancer patients) | Correlation between immune responses and OS: Positive (mOS) (cancer patients) | also measured
1 | QIRPIFSNR (listed as Homo sapiens) [SART3-734] | 7,098 FIU | 96 FIU | 231 | 835 | 253(116) | 547 | 2,041 | 625(225) | 111 FIU | 4,816 FIU | 11.0 months | 22.3 months | 1.0 | 625(10.9) M | 589(11.3) M | 1.0 | 502(9.5) M | 467(10.2) M | 14.8 months | 29.3 months | HR (cancer patients; [11]): 0.9; Vaccinate cases (mOS) (cancer patients; [12]): 253(17.9) M; Non-vaccinate cases (mOS) (cancer patients; [13]): 254(17.5) M
2 | AYDFLYNYL (listed as Homo sapiens) [SART2-161] | 775 FIU | 27 FIU | 699 | 367 | 70(26) | 1,641 | 947 | 195(61) | 29 FIU | 312 FIU | 12.6 months | 20.6 months | 1.0 | 195(12.3) M | 13,552(11.9) M | 0.9 | 156(10.7) M | 1090(10.4) M | 14.4 months | 26.7 months | HR (cancer patients; [11]): 1.1; Vaccinate cases (mOS) (cancer patients; [12]): 70(17.4) M; Non-vaccinate cases (mOS) (cancer patients; [13]): 555(18.4) M
3 | HYTNASDGL (listed as Homo sapiens) [Lck-208] | 9,551 FIU | 31 FIU | 839 | 227 | 69(36) | 2,028 | 560 | 134(64) | 30 FIU | 4,597 FIU | 16.0 months | 30.5 months | 0.9 | 134(19.7) M | 1,416(11.4) M | 0.7 | 103(17.1) M | 1143(10.0) M | 19.9 months | 34 months | median OS of non-vaccinated cases (cancer patients; [14]): 10 months; median OS of vaccinated cases (cancer patients; [14]): 17.1 months; HR (cancer patients; [11]): 0.7; Vaccinate cases (mOS) (cancer patients; [12]): 69(26.7) M; Non-vaccinate cases (mOS) (cancer patients; [13]): 556(17.6) M

— US20220233661A1, “METHOD OF DETERMINING ELIGIBILITY OF CANCER PATIENT FOR PEPTIDE VACCINE THERAPY” (priority 2019, published 2022)
